Laboratory results as given in patent publication US20100227853A1, “INHIBITORS OF CYCLIC AMP PHOSPHODIESTERASES” (Trustees of Boston College, priority 2008, published 2010).

Columns and labels:
[1] = target: T1, PDE4A1 (Mus musculus, UniProt O89084); assay: 5FOA growth assay (high throughput screen, ED50) in fission yeast strain expressing PDE4A1; format: cell-based; conditions: high throughput 5FOA growth screen; greater than 8.53 = statistically-significant inhibitor
T1 construct: targets used in the assays are full-length proteins (as opposed to simply the catalytic domain); expressed in transfected cells; host or cells: Schizosaccharomyces pombe, PDE gene integrated in place of cgs2
T1 sequence (O89084 1-610 isoform O89084-2): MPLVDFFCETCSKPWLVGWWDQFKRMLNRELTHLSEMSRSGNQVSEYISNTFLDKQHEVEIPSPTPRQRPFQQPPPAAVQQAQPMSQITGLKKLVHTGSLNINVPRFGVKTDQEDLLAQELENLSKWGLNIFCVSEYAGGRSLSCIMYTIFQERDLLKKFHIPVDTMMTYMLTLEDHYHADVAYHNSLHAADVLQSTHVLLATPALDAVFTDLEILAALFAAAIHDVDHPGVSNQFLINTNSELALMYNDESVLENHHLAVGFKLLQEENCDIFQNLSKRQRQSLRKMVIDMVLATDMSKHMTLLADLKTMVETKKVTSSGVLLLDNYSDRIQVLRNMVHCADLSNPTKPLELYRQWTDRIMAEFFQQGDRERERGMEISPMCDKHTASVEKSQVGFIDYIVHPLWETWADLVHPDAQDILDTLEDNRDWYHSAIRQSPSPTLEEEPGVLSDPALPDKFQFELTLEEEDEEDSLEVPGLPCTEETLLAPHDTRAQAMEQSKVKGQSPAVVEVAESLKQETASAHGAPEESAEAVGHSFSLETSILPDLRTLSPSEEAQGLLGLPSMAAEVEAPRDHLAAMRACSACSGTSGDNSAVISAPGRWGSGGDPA
Experimental: (§1) High throughput drug screens were carried out at the Broad Institute's Chemical Biology Program screening facility (Broad Institute, Cambridge, Mass.). Depending upon the strain, cultures were pregrown to exponential phase in EMM complete medium containing from 0.5 to 2.5 mM cAMP to repress fbp1-ura4 transcription. […] Starting cell concentrations ranged from 0.5×10^5 to 4×10^5 cells/ml depending on the screening strain. […] Other positive control dishes contained 5 mM cAMP in the 5FOA medium. Cultures were grown for 48 hours at 30° C., sealed in an airtight container with moist paper towels to prevent evaporation. Optical densities (OD600) of cultures were measured using a microplate reader. Bioinformatic analysis of the results to determine composite Z scores was performed as previously described^30, 31.
(§2) To determine whether the 5FOA growth phenotype could be exploited for high throughput drug screening, strains expressing PDE2A, PDE4A, PDE4B, or PDE8A were pre-grown in EMM medium containing cAMP and then transferred to 5FOA medium in 384 well microtiter plates in the presence or absence of cAMP. OD600 measurements were taken after 48 hours incubation at 30° C.
(§3) Cells were pregrown in EMM medium [MP Biomedicals (Solon, Ohio), 3% glucose, filter-sterilized to avoid carmelization, which would introduce variability into the optical density of the medium] containing from 0 mM to 2.5 mM cAMP (or either 0.5 mM or 1.0 mM cGMP). This was to repress expression of the fbp1-ura4 reporter prior to exposure of cells to 5FOA medium. Cells were grown at 30° C. to exponential phase (approximately 10^7 cells/ml). […] Starting cell concentrations ranged from 0.5×10^5 to 4×10^5 cells/ml depending on the screening strain. […] Other positive control dishes contained 5 mM cAMP in the 5FOA medium for PDEs that lack appropriate control compounds. Cultures were grown for 48 hours at 30° C., sealed in an airtight container with moist paper towels to prevent evaporation. Optical densities (OD600) of cultures were measured using a microplate reader. Bioinformatic analysis of the results to determine composite Z scores was performed as previously described (1, 3).

[2] = target: T2, PDE4B3 (Mus musculus, UniProt Q8VBU5); assay: 5FOA growth assay in fission yeast strain expressing PDE4B3; format: cell-based, Murine; conditions: for Composite Z score, PDE4B3: high throughput 5FOA growth screen
T2 construct: targets used in the assays are full-length proteins (as opposed to simply the catalytic domain); expressed in transfected cells; host or cells: Schizosaccharomyces pombe, PDE gene integrated in place of cgs2
T2 sequence (Q8VBU5 1-721): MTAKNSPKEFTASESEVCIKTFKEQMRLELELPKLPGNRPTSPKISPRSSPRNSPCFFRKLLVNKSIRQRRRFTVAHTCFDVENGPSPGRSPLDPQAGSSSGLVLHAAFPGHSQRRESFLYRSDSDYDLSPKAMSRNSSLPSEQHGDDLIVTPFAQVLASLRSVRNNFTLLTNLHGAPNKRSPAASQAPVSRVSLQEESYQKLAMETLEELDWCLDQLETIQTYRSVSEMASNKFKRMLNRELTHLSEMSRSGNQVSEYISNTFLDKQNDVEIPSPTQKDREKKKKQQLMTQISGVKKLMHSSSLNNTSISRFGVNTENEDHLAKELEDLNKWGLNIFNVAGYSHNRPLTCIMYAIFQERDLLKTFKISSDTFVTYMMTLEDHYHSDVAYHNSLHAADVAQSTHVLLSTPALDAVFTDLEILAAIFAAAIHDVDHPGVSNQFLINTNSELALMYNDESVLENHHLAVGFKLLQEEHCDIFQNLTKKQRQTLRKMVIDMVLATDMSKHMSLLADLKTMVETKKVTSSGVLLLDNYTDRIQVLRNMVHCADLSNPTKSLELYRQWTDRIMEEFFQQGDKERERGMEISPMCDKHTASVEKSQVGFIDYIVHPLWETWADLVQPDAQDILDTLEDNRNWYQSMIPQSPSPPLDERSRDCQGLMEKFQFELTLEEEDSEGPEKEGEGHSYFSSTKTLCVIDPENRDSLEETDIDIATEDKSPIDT
Experimental: as §1, §2, §3

SMILES | Composite Z score, PDE4A1 [1] | Composite Z score, PDE4B3 [2] | 1 Assay (20 uM) 4B3 ([2]; 20 uM)
O=C(O)C(Cc1ccccc1)Nc1ncnc2sc3c(c12)CCC3 (stereo not shown) [Compound 1381O17] | −0.467 | 0.3352 | 
CCC(CO)Nc1nc(C)nc2sc3c(c12)CCC3 (stereo not shown) [Compound 1380M03] | −1.217 | −2.398 | 
Cc1nc(N2CCC(C)CC2)c2c(C)c(C(=O)N3CCOCC3)sc2n1 [Compound 1424A12] | 2.2036 | −2.898 | 
CC1CCc2c(sc3nc(SCC(N)=O)nc(NCc4ccccc4)c23)C1 (stereo not shown) [Compound 1157L22] | 2.3434 |  | 
COCCCNC(=O)c1sc2ncnc(N3CCN(c4ccccc4F)CC3)c2c1C [Compound 1159C19] | 2.6846 |  | 
Cc1nc(N2CCOCC2)c2c(C)c(C(=O)Nc3cccc(Cl)c3C)sc2n1 [Compound 1424K08] | 3.4896 | 21.717 | 
CC(C)(C)C(=O)Nc1ncnc2sc3c(c12)CCCC3 [Compound 1379O22] | 1.5734 | −0.703 | 
CC(C)N(C)c1ncnc2sc3c(c12)CCC3 [Compound 1407G21] | 12.819 | 0.0445 | 
Cc1c(C(=O)N2CCC3(CC2)OCCO3)sc2ncnc(N(C)c3ccccc3)c12 [1393 E07] | 3.1682 | −1.206 | 
CCC(CO)Nc1nc(C)nc2sc3c(c12)CCC3 (stereo not shown) [Compound 1422J17] | 0.1866 | −0.936 | 
O=C(Nc1ncnc2sc3c(c12)CCCC3)C(F)(F)F [Compound 1406P09] | 0.1456 | 0.5128 | 
CCN(CC)c1ncnc2sc3c(c12)CCC(C#N)(c1ccccc1)C3 (stereo not shown) [Compound 1380G04] | 20.429 | −0.752 | 
N#Cc1sc(C(N)=O)c(-c2ccco2)c1-c1ccco1 [1449, A02] |  |  | 1.8244 ND ND ND ND
COc1ccc(CCNc2ncnc3sc(C)c(C)c23)cc1OC [Compound 1423F01] | 0.9043 | 4.2065 | 
Cc1c(C(=O)NCc2ccccn2)sc2ncnc(N3CCc4ccccc4C3)c12 [Compound 1159O19] | 11.945 |  | 
Cc1nc(N2CCCN(C)CC2)c2c3c(sc2n1)CCC3 [Compound 1415C05] | 0.327 | 0.6059 | 
CCOC(=O)CNC(=O)c1sc2ncnc(N3CCN(c4ccccc4F)CC3)c2c1C [Compound 1159A19] | 2.4477 |  | 
Cc1nc(N2CCN(C)CC2)c2c(C)c(C(=O)N3CCN(c4cccc(Cl)c4)CC3)sc2n1 [Compound 1158G03] | −0.078 |  | 
Cc1c(C(=O)NCc2ccco2)sc2ncnc(N3CCN(c4ccccc4F)CC3)c12 [Compound 1159O17] | 3.616 |  | 
CCOC(=O)c1sc2nc(CC(=O)OC)nc(NCC(=O)OC)c2c1C [Compound 1379F18] | −0.126 | 3.0462 | 
CCN(CC)CCCNC(=O)c1sc2ncnc(N3CCN(c4ccc(OC)cc4)CC3)c2c1C [Compound 1158C03] | 2.6937 |  | 
Cc1c(C(=O)NCC2CCCO2)sc2ncnc(N3CCN(c4ccccc4F)CC3)c12 (stereo not shown) [Compound 1159M17] | 1.9801 |  | 

SMILES | Composite Z score, PDE4A1 [1] | Composite Z score, PDE4B3 [2] | 1 Assay (20 uM) 4B3 ([2]; 20 uM)
COC(=O)c1ccccc1NC(=O)c1sc2ncnc(N3CCN(c4ccccn4)CC3)c2c1C [Compound 1159K09] | 0.5937 |  | 
Cc1c(C(=O)NCc2ccco2)sc2ncnc(N3CCN(c4ccccc4)CC3)c12 [Compound 1159G19] | 7.7398 |  | 
Cc1c(C(=O)Nc2ccc3c(c2)OCO3)sc2ncnc(N3CCc4ccccc4C3)c12 [Compound 1159C21] | 3.9976 |  | 
CN(C)CCCNc1ncnc2sc3c(c12)CCCC3 [Compound 1414C02] | 1.6456 | 21.25 | 
c1nc(N2CCCCC2)c2c3c(sc2n1)CCC3 [Compound 1421A20] | 4.6254 | 4.7765 | 
Cc1nc(NCc2ccco2)c2c3c(sc2n1)CCC3 [Compound 1426I13] | −0.033 | −0.071 | 
Cc1nc(N2CC(C)OC(C)C2)c2c3c(sc2n1)CCC3 (stereo not shown) [Compound 1421B05] | 2.1932 | 5.4669 | 
N#CC1(c2ccccc2)CCc2c(sc3ncnc(N4CCCC4)c23)C1 (stereo not shown) [Compound 1380I09] | 1.2506 | −1.076 | 
CCN(CC)c1ncnc2sc(C)c(C)c12 [Compound 1403J21] | 1.647 | 0.0332 | 
CCOC(=O)c1sc2nc(CC(=O)OC)nc(NCCN3CCOCC3)c2c1C [Compound 1158A03] | 0.3744 |  | 
CC1CCc2c(sc3nc(SCC(N)=O)nc(NCc4ccccc4)c23)C1 (stereo not shown) [Compound 1439G17] | 6.7542 | 47.874 | 
Cc1sc2ncnc(NCc3ccc4c(c3)OCO4)c2c1C [Compound 1426A15] | 1.5745 | 0.9419 | 
CCOC(=O)CSc1nc(NC)c2c3c(sc2n1)CCCC3 [Compound 1439B09] | 0.5702 | 1.2391 | 
COCCNC(=O)c1sc2ncnc(N3CCN(c4ccccn4)CC3)c2c1C [Compound 1159M09] | 1.1811 |  | 
COc1cc(NC(=O)c2sc3nc(C)nc(N4CCCCC4C)c3c2C)cc(OC)c1OC (stereo not shown) [Compound 1159M15] | 17.363 |  | 
COc1cc(NC(=O)c2sc3nc(C)nc(N4CCOCC4)c3c2C)cc(OC)c1OC [Compound 1159O09] | 0.8757 |  | 
CCCCNC(=O)c1sc2ncnc(N3CCc4ccccc4C3)c2c1C [Compound 1159K19] | 5.4376 |  | 
OCCN(CCO)c1ncnc2sc3c(c12)CCCC3 [1415 E01] | 2.2076 | 0.8257 | 
COCCCNC(=O)c1sc2ncnc(N3CCc4ccccc4C3)c2c1C [Compound 1159M19] | 5.0576 |  | 
CCOC(=O)c1sc2ncnc(N3CCC4(CC3)OCCO4)c2c1C [Compound 1159G15] | 5.3411 |  | 
Cc1c(C(=O)NCC2CCCO2)sc2ncnc(N3CCN(c4ccccc4)CC3)c12 (stereo not shown) [1159 E19] | 1.0613 |  | 
Cc1c(C(=O)NCc2ccco2)sc2ncnc(N3CCc4ccccc4C3)c12 [Compound 1159I19] | 26.235 |  | 
